Where only a bound is given, the exact number is not on record here.

Here are results for one molecule from patent publication US12011439B2, “Combination therapy using C—C chemokine receptor 4 (CCR4) antagonists and one or more immune checkpoint inhibitors” (CHEMOCENTRYX, INC., priority 2018, dated 2024).

One assay addresses T1, CCR9 (Homo sapiens, UniProt P51686).
T1 sequence (P51686 1-369): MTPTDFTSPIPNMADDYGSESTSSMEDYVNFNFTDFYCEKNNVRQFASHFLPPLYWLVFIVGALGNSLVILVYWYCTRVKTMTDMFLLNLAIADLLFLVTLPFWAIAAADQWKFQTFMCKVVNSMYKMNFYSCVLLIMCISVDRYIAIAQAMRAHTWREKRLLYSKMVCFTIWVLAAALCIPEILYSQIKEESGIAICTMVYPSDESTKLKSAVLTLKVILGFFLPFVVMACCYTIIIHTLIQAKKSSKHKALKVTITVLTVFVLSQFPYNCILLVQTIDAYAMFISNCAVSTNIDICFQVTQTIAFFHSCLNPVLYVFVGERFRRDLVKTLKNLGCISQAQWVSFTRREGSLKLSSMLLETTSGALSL
Put plainly: Compound 1 selectivity panel, buffer IC50. The assay is classed as cell-based. The conditions noted are these: Receptor CCR9. The method, then:
(§1) The selectivity of Compound 1 was tested by determining the IC50 value against a diverse panel of receptors, enzymes, and ion channels. […] See, Table 1.

The target of the next assay is T2, Duffy (Homo sapiens, UniProt Q16570).
T2 sequence (Q16570 1-336): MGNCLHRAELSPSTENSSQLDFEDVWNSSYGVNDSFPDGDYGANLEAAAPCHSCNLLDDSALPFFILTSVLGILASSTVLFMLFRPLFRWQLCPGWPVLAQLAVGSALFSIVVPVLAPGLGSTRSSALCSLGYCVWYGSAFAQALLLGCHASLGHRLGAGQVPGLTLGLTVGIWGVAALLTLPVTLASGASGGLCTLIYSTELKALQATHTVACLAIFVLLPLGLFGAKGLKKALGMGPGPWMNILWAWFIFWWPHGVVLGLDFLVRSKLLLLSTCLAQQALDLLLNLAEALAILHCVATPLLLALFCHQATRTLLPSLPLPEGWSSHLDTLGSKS
Put plainly: Compound 1 selectivity panel, buffer IC50. The note with it: Receptor Duffy. It is filed as cell-based. The method, then: as §1

Turning to `C[C@@H](Nc1cc(C2CCN([C@H]3CCCN(CCC(=O)O)C3)CC2)ccc1Cl)c1ccc(Cl)cc1Cl` [Compound 1], the IC50 against CCR9 and at Duffy was greater than 10 µM each time.

By IC50 is commonly meant the concentration that gives 50% inhibition.
